pKi: −log10 of the molar value.
How the values were obtained:
Carbonic anhydrase 1 = Carbonic anhydrase 1 (Homo sapiens, UniProt P00915); experiment: Inhibition of recombinant human erythrocyte cytosolic carbonic anhydrase 1 by stopped-flow CO2 hydration assay
Carbonic anhydrase 12 = Carbonic anhydrase 12 (Homo sapiens, UniProt O43570); experiment: Inhibition of recombinant human membrane bound carbonic anhydrase 12 by stopped-flow CO2 hydration assay
Carbonic anhydrase 2 = Carbonic anhydrase 2 (Homo sapiens, UniProt P00918); experiment: Inhibition of recombinant human erythrocyte cytosolic carbonic anhydrase 2 by stopped-flow CO2 hydration assay
Carbonic anhydrase 9 = Carbonic anhydrase 9 (Homo sapiens, UniProt Q16790); experiment: Inhibition of recombinant human membrane bound carbonic anhydrase 9 by stopped-flow CO2 hydration assay

Chain of Carbonic anhydrase 1 (P00915 whole entry): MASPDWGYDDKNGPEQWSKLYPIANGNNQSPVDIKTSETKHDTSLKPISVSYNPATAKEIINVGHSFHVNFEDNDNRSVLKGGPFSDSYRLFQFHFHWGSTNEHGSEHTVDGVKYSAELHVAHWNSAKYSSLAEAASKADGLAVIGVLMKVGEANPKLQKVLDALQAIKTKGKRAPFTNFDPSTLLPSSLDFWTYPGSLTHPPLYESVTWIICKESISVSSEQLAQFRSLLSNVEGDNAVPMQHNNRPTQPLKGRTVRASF
Chain of Carbonic anhydrase 12 (O43570 whole entry): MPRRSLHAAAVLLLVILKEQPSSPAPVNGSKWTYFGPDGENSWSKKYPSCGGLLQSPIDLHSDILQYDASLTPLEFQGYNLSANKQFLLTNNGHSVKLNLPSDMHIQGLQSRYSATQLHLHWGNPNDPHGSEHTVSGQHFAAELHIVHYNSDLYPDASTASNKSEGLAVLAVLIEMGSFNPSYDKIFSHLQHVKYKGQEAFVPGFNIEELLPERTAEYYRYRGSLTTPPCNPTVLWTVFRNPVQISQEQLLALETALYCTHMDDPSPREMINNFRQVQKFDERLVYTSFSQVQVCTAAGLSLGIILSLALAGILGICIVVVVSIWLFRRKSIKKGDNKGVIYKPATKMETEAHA

Row | pKi (Carbonic anhydrase 1) | pKi (Carbonic anhydrase 12) | pKi (Carbonic anhydrase 2) | pKi (Carbonic anhydrase 9) | Compound
1 | 6.61 | 8.48 | 6.62 | 6.56 | Cc1ccc(-c2cn3nc(-c4ccc(S(N)(=O)=O)cc4)sc3n2)cc1
2 | 6.66 | 7.10 | 7.25 | 6.87 | NS(=O)(=O)c1ccc(-c2nn3cc(-c4ccc(F)cc4)nc3s2)cc1
3 | 6.03 | 7.57 | 6.28 | 5.77 | NS(=O)(=O)c1ccc(-c2nc3scc(-c4ccc(Cl)cc4)n3n2)cc1
4 | 6.50 | 8.39 | 8.14 | 6.68 | NS(=O)(=O)c1ccc(-c2nn3cc(-c4ccccc4)nc3s2)cc1
5 | 5.01 | 6.52 | 5.20 | 6.76 | NS(=O)(=O)c1ccc(-c2nc3scc(-c4ccc(Br)cc4)n3n2)cc1
6 | 7.08 | 7.65 | 7.82 | 6.83 | COc1ccc(-c2csc3nc(-c4ccc(S(N)(=O)=O)cc4)nn23)cc1
7 | 6.29 | 7.30 | 6.56 | 6.76 | NS(=O)(=O)c1ccc(-c2nn3cc(-c4cccc([N+](=O)[O-])c4)nc3s2)cc1
8 | 6.54 | 7.32 | 6.43 | 6.51 | NS(=O)(=O)c1ccc(-c2nn3cc(-c4ccc([N+](=O)[O-])cc4)nc3s2)cc1
9 | 7.19 | 6.44 | 7.88 | 6.69 | NS(=O)(=O)c1ccc(-c2nc3scc(-c4cccc([N+](=O)[O-])c4)n3n2)cc1
10 | 5.03 | 7.45 | 5.41 | 6.72 | NS(=O)(=O)c1ccc(-c2nc3scc(-c4ccc([N+](=O)[O-])cc4)n3n2)cc1
11 | 6.20 | 7.07 | 6.17 | 6.04 | NS(=O)(=O)c1ccc(-c2nn3cc(-c4ccc(Br)cc4)nc3s2)cc1
12 | 6.56 | 7.12 | 7.17 | 6.60 | NS(=O)(=O)c1ccc(-c2nn3cc(-c4cccc(Br)c4)nc3s2)cc1
13 | 7.01 | 6.53 | 7.65 | 6.88 | NS(=O)(=O)c1ccc(-c2nc3scc(-c4ccc(-c5ccccc5)cc4)n3n2)cc1
14 | 7.75 | 6.83 | 7.74 | 6.58 | NS(=O)(=O)c1ccc(-c2nc3scc(-c4ccccc4)n3n2)cc1
15 | 5.02 | 7.38 | 5.59 | 5.96 | NS(=O)(=O)c1ccc(-c2nc3scc(-c4cccc(Br)c4)n3n2)cc1
16 | 7.10 | 7.62 | 7.71 | 7.07 | Cc1ccc(-c2csc3nc(-c4ccc(S(N)(=O)=O)cc4)nn23)cc1
17 | 6.30 | 7.10 | 6.61 | 5.92 | NS(=O)(=O)c1ccc(-c2nn3cc(-c4ccc(Cl)cc4)nc3s2)cc1
18 | 6.07 | 8.42 | 6.08 | 5.55 | COc1ccc(-c2cn3nc(-c4ccc(S(N)(=O)=O)cc4)sc3n2)cc1
19 | 7.45 | 7.21 | 6.43 | 6.84 | NS(=O)(=O)c1ccc(-c2nn3cc(-c4ccc(-c5ccccc5)cc4)nc3s2)cc1
20 | 6.18 | 6.44 | 6.52 | 6.63 | NS(=O)(=O)c1ccc(-c2nc3scc(-c4ccc(F)cc4)n3n2)cc1
